Measurements: patent US11186640B2, “Method for the identification of immunotherapy-drug combinations using a network approach” (THE UNIVERSITY OF WESTERN AUSTRALIA, priority 2014, dated 2021)
Entries after “also recorded” stand apart in the source; their conditions may differ. Read-outs that look alike come from different tables or passages of the source.

How the values were obtained:
AB1-HA mesothelioma [1] = assay: in vivo co-treatment with anti-CTLA-4 in AB1-HA tumour bearing mice; set-up: species or system BALB/c mice; settings: for anti-tumour response / response rate to anti-CTLA-4 on co-treatment: drug in combination with anti-CTLA-4
melanoma = melanoma patients after ipilimumab; cited from earlier work
AB1-HA mesothelioma [2] = assay: in vivo co-treatment with anti-GITR in AB1-HA tumour bearing mice; set-up: species or system BALB/c mice; settings: drug in combination with anti-GITR
Line-1 lung cancer cells = assay: in vivo co-treatment with anti-CTLA4 in Line-1 lung cancer model; set-up: species or system BALB/c mice
[3] = system: Renca kidney cancer cells; assay type: in vivo, BALB/c mice
[4] = mouse, in vivo, ip, 400 mg/kg
[5] = mice, i.p. administration; cited from earlier work

Compound	anti-tumour response / response rate to anti-CTLA-4 on co-treatment (AB1-HA mesothelioma [1])	other results
Cc1cc(Nc2cc(N3CCN(C)CC3)nc(Sc3ccc(NC(=O)C4CC4)cc3)n2)n[nH]1 [VX-680]	significantly increased	–
Cc1ncc(CO)c(CO)c1O [pyridoxine]	clear effect; also recorded: increased anti-tumour response	–
CN1CC[C@H](c2c(O)cc(O)c3c(=O)cc(-c4ccccc4Cl)oc23)[C@H](O)C1 [flavopiridol]	increased the response rate	–
O=S(=O)(c1cccc2cnccc12)N1CCCNCC1 [Fasudil]	increased the response rate	growth delay (AB1-HA mesothelioma [1]; drug alone): did not result in any growth delay
NC(=NCCC[C@H](N)C(=O)O)N[N+](=O)[O-] [L-NNA]	diminished; also recorded: abrogated the anti-tumour effect	–
ipilimumab	–	7-year survival (melanoma): 17%
COc1c2c(cc3c1OCO3)CCN(C)C2 [hydrocotarnine]	increased anti-tumour response	–
CCOC(=O)N1CCN(/[N+]([O-])=N/Oc2ccc([N+](=O)[O-])cc2[N+](=O)[O-])CC1 [JS-K]	improves the clinical benefit	–
O=[N+]([O-])O[C@H]1CO[C@H]2[C@@H]1OC[C@H]2O[N+](=O)[O-] [ISDN, Isosorbide dinitrate]	increase the therapeutic efficacy; also recorded: increased the response rate	survival / efficacy of checkpoint blockade with anti-GITR on co-treatment (AB1-HA mesothelioma [2]): could equally be improved; also recorded: improved survival; complete regression / clinical efficacy of CTLA4 blockade on co-treatment (Line-1 lung cancer cells; drug in combination with anti-CTLA4): improve the clinical efficacy; also recorded: complete regression in a substantial proportion of mice; complete regression (Line-1 lung cancer cells; either treatment alone): not observed; survival / clinical efficacy of CTLA4 blockade on co-treatment ([3]; Renca kidney cancer, drug in combination with anti-CTLA4): improve the clinical efficacy; also recorded: improved survival
Cc1cc2c(cc1S(N)(=O)=O)S(=O)(=O)CCC2 [meticrane]	clear effect; also recorded: increased anti-tumour response	clinical signs [4]: slightly ruffled; LD50 [5]: 10000 mg/kg
CC1=C(/C=C/C(C)=C/C=C/C(C)=C/C(=O)O)C(C)(C)CCC1 [ATRA, All-trans Retinoic Acid]	clear effect; also recorded: increased anti-tumour response	survival / clinical efficacy of CTLA4 blockade on co-treatment ([3]; mouse, in vivo): improve the clinical efficacy; also recorded: improved survival
